Like-named read-outs stand apart in the source and are kept apart here. Blank lines part the entries; values can stand above or below the molecule they belong to.
Key:
Abcg2 mRNA (BCRP) = experiment: qRT-PCR of mRNA expression in rat tissues after multiple-dose almonertinib; assay type: in vivo; settings: intestine, rats given almonertinib for nine consecutive days, n = 3
Procedure: (§1) Sixty healthy rats were randomly divided into ten groups (n = 6). […] Blood samples were centrifuged at 3,500 g for 10 min, and then the supernatant was gathered and stored in a −80°C refrigerator. After, rat intestine, kidney and liver tissues were harvested for molecular analysis on the ninth or fifth day after treatment with the corresponding drugs for each group. The tissues were placed immediately at −80°C.
(§2) qRT-PCR analysis was used to determine mRNA levels of Abcb1a, Abcg2 and Cyp3a1 in the liver and intestines, and Abcb1a and Abcg2 in the kidney of rats. Total RNA was isolated from frozen liver, intestine and kidney samples using TRNzol Universal according to the manufacturer’s instructions. A Bio Tek Epoch (Bio Tek Instruments, Inc., Winooski, VT, United States) was employed to quantify the purity and concentration of the total RNA based on the ratio of the absorbance between 260 and 280 nm. RNA samples of 1 µg were transformed to complementary DNA (cDNA) using the FastKing RT Kit. The real-time PCR assays were accomplished using a two-step amplification method based on the recommendations in a SLAN-96S Real-Time PCR system (Shanghai Hongshi Medical Technology Co., Ltd. Shanghai, China). […] was used as an internal control, and the PCR cycling criteria were as follows: 95°C for 15 min, then 40 cycles of 95°C for 10, and 60°C for 32 s.

Cyp3a1 mRNA (CYP3A4) = experiment: as above; assay type: in vivo; settings: rats given almonertinib for nine consecutive days, n = 3
Procedure: as §1, §2

[1] = Pharmacokinetics of rivaroxaban in rats, alone and after multiple doses of almonertinib; assay type: in vivo, Sprague-Dawley (SD) rats; settings: for AUC(0-inf) / Cmax / Tmax / CL/F / MRT last / MRT inf / Vd/F: po; for CL/F: read-out: CLz/F (converted); for MRT last: read-out: MRT0-t; for MRT inf: read-out: MRT0-∞; for Vd/F: read-out: Vz/F; for half-life: read-out: t1/2z (converted)
Procedure: Analytes were measured using UPLC-MS/MS, which was equipped with an LC-30A ultra-performance liquid chromatography (Shimadzu, Kyoto, Japan) and Sciex Triple Quad 5,500 tandem triple quadrupole mass spectrometer (AB Sciex, Framingham, MA, United States). Chromatographic separation was performed using an XSelect HSS T3 column (2.1 mm × 100 mm, 2.5 µm, Waters, Milford, MA, United States) at 40°C by gradient elution. The mobile phase consisted of water (A) and acetonitrile (0.1% formic acid, B). The elution procedure was as follows: 0–1.0 min, 50% B; 1.0–1.5 min, 50%→98% B; 1.5–3.0 min, 98% B; 3.0–3.1 min, 98%→50% B; 3.1–4.1 min, 50% B. The flow rate was 0.35 mL min^−1, and the injection volume was 6 µL.
The positive ion mode with multiple reaction detection was used. […] The mass spectrometer conditions, including delustering potential (DP) and collision energy (CE) of the compounds, are shown in Table 1. Other parameters of the mass spectrometer were as follows: ion source gas 1, 60.0 psi; ion source gas 2, 50.0 psi; curtain gas, 25.0 psi; source temperature, 500°C; ion spray voltage, 5,500 V.
Protein precipitation was used to process the plasma samples. 5 μL of mixed IS working solution, 50 µL of the plasma samples, and 150 µL of acetonitrile were vortex-mixed for 1.0 min. Then, the mixture was centrifuged at 13,000 × g for 10 min; 100 µL of 50% acetonitrile-water was added to 100 µL of supernatant, vortex-mixed, and centrifuged again. The supernatant was transferred to a 96-well plate for sample analysis.
Healthy male Sprague-Dawley (SD) rats weighing 250 ± 20 g were purchased from Beijing Huafukang Biotechnology Co., Ltd. (Beijing, China). The license number is SCXK (Beijing) 2019–0008. The study was approved and supervised by the Animal Ethics Committee of Hebei General Hospital (Shijiazhuang, China) (No. 2023024). Adaptive feeding (sufficient food and water) was performed for 1 week before the experiment. All the rats were kept under suitable conditions (12 h dark-light diurnal cycle, appropriate temperature at 23°C–25°C, relative humidity of 50% ± 10%). All rats were fasted for 12 h before starting the experiments while still given water.
as §1
DAS 2.1.1 Software (Mathematical Pharmacology Professional Committee of China, Shanghai, China) was applied to calculate pharmacokinetic parameters using non-compartmental analysis. SPSS 25.0 statistical software (SPSS Inc., Chicago, IL, United States) was applied to statistically analyze the main pharmacokinetic parameters, including AUC, Cmax, Tmax, t1/2, CLz/F, Vz/F, and MRT. Statistical comparisons were conducted using a analysis of variance, t-test or nonparametric rank-sum test depending on the data type; p-value <0.05 was deemed statistically significant.

[2] = male, Sprague-Dawley, rat, plasma, 1 mg/kg, rats, oral rivaroxaban 1 mg/kg after almonertinib 15 mg/kg for nine days (group 6), mean ± SD, n = 6
[3] = male, Sprague-Dawley, rat, plasma, 2 mg/kg, rats, oral rivaroxaban 2 mg/kg after almonertinib 15 mg/kg for nine days (group 5), mean ± SD, n = 6
[4] = male, Sprague-Dawley, rat, plasma, 2 mg/kg, rats, oral rivaroxaban 2 mg/kg alone (group 1), mean ± SD, n = 6
[5] = rats, oral rivaroxaban 2 mg/kg after almonertinib 15 mg/kg for nine days (group 5), mean ± SD, n = 6
[6] = rivaroxaban 1 mg/kg with multiple doses of almonertinib (group 6) compared to group 1, rats
[7] = rivaroxaban 2 mg/kg with multiple doses of almonertinib (group 5) compared to group 1, rats

inhibition of mRNA expression of Cyp3a1 (Cyp3a1 mRNA (CYP3A4); intestine): 96.9% | inhibition of mRNA expression of Cyp3a1 (Cyp3a1 mRNA (CYP3A4); liver): 45.5%
SMILES: C=CC(=O)Nc1cc(Nc2nccc(-c3cn(C4CC4)c4ccccc34)n2)c(OC)cc1N(C)CCN(C)C [almonertinib, Almonertinib]
inhibition of mRNA expression of Abcg2 (Abcg2 mRNA (BCRP)): 28.0%

increase of AUC of rivaroxaban ([1]; after a half dose reduction of rivaroxaban, multiple doses of almonertinib, rats (discussion)): ~1.9 fold | increase of AUC of rivaroxaban ([1]; co-administration with almonertinib for multiple doses, rats (discussion, AUC not specified further)): more than 3.0 fold | AUC(0-inf) [1, 2]: 2230 ng·h/mL | Cmax [1, 2]: 457 ± 101 ng/mL | Tmax [1, 2]: 2.08 ± 0.49 h | CL/F [1, 2]: 7.83 mL/min/kg | MRT last [1, 2]: 4.1 ± 0.41 h | MRT inf [1, 2]: 4.3 ± 0.47 h | Vd/F [1, 2]: 2.83 ± 0.55 L/kg | AUC(0-inf) [1, 3]: 3540 ng·h/mL | Cmax [1, 3]: 862 ± 110 ng/mL | Tmax [1, 3]: 2.21 ± 0.95 h | CL/F [1, 3]: 10 mL/min/kg | MRT last [1, 3]: 3.94 ± 0.56 h | MRT inf [1, 3]: 4.12 ± 0.6 h | Vd/F [1, 3]: 3.75 ± 0.72 L/kg | AUC(0-inf) [1, 4]: 797 ± 169 ng·h/mL | Cmax [1, 4]: 200 ± 38 ng/mL | Tmax [1, 4]: 0.92 ± 0.3 h | CL/F [1, 4]: 43.7 mL/min/kg | MRT last [1, 4]: 4.72 ± 0.57 h | MRT inf [1, 4]: 6.09 ± 1.45 h | Vd/F [1, 4]: 26.4 ± 18 L/kg | AUC(0-t) ([1]; male, Sprague-Dawley, rat, plasma, rats, oral rivaroxaban 1 mg/kg after almonertinib 15 mg/kg for nine days (group 6), mean ± SD, n = 6, read-out: AUC0-t): 2220 ng·h/mL | half-life ([1]; male, Sprague-Dawley, rat, plasma, rats, oral rivaroxaban 1 mg/kg after almonertinib 15 mg/kg for nine days (group 6), mean ± SD, n = 6): 258 ± 54.6 min | AUC(0-t) ([1]; male, Sprague-Dawley, rat, plasma, rats, oral rivaroxaban 2 mg/kg alone (group 1), mean ± SD, n = 6, read-out: AUC0-t): 764 ± 164 ng·h/mL | half-life ([1]; male, Sprague-Dawley, rat, plasma, rats, oral rivaroxaban 2 mg/kg alone (group 1), mean ± SD, n = 6): 410 ± 208 min | AUC(0-t) [1, 5]: 3,511.15 ± 783.84 μg/L*h | t1/2z [1, 5]: 4.47 ± 0.80 h | Tmax of rivaroxaban longer than control [1, 6]: 1.26 fold | decrease of CLz/F of rivaroxaban [1, 6]: 4.57 fold | increase of AUC0-t of rivaroxaban [1, 6]: 1.90 fold | Tmax of rivaroxaban longer than control [1, 7]: 1.40 fold | decrease of CLz/F of rivaroxaban [1, 7]: 3.37 fold | increase of AUC0-t of rivaroxaban [1, 7]: 3.60 fold | increase of AUC0-∞ of rivaroxaban [1, 7]: 3.44 fold
SMILES: O=C(NC[C@H]1CN(c2ccc(N3CCOCC3=O)cc2)C(=O)O1)c1ccc(Cl)s1 [rivaroxaban, Rivaroxaban]

— PMC10582335 (Frontiers in Pharmacology, 2023)
